What was measured:
[1] = test system: P. aeruginosa ATCC 27853; details: Publicly-known data; cited from earlier work
[2] = test system: S. aureus ATCC 29213; details: Publicly-known data; cited from earlier work
[3] = test system: E. coli ATCC 25922; details: Publicly-known data; cited from earlier work
[4] = test system: Porphyromonas gingivalis 381-strain; test: Evaluation test for biofilm formation inhibition effect against periodontitis pathogenic bacteria (flow cell, HA disks, turbidity); assay type: cell-based; details: for inhibition of biofilm formation caused by periodontitis pathogenic bacteria (conclusion in words) / Mean OD Value: 100 μM; for inhibition of biofilm formation caused by periodontitis pathogenic bacteria (conclusion in words): 14 days; for Mean OD Value: turbidity of suspended biofilm at 550 nm
Method: As with Experiment Example 1, using the flow cell system of FIG. 1, an inhibitory effect against biofilm formation by periodontitis pathogenic bacteria was evaluated for each of the amide compounds produced in Production Examples 1, 3, 5, and 6 (Compounds 1a-1, 1b-1, 1c-1, 1c-2).
Periodontitis pathogenic bacteria Porphyromonas gingivalis 381-strain (clinical strain) was used.
A GAM culture medium containing hemin 5 μg/L and menadione 1 μg/L was used.
The 381-strain was inoculated in the GAM culture medium, and cultivated until stationary phase (OD550=1.8). Then the culture medium was diluted 20-fold by a fresh GAM culture medium containing the above-mentioned substances.
(§1) The test liquid was prepared by dissolving 100 μM of each of the Compounds 1a-1, 1b-1, 1c-1, or 1c-2 according to Production Examples 1, 3, 5 and 6 and 100 μM of Comparative Compounds 1 and 2 as comparative examples in dimethyl sulfoxide (DMSO), and supplying the resulting DMSO solutions to the above-mentioned bacterial suspensions so that the concentration of each compound becomes 0.1%(v/v).
(§2) A DMSO not containing the compound was used as a control test liquid.
The glass cell (4) of the flow cell system (see FIG. 1) was replaced with a stainless cell (3×7×120 mm), and 10 hydroxyapatite (HA) disks (6 mm in diameter, 1 mm in thickness) were placed in the cell. The HA disks had been subjected to salivary treatment overnight. Each of the test liquids and control test liquids was circulated in the system at a flow rate of 8 mL/min for 14 days. Note that the test liquids and the control test liquids were replaced with fresh liquids every two days.
After the cultivation, the HA disks were dipped in 300 μL of sterile distilled water, and treated by supersonic wave for 30 minutes at 4° C. The biofilms formed in the HA disks were peeled off and suspended in distilled water. Then, 100 μL of the suspension liquid was measured for the turbidity with an absorptiometer (C07500 colorimeter, product of Funakoshi) (measurement wavelength=550 nm).
A mean OD was found based on the resulting OD values, excluding the minimum and maximum values. Also, a mean value of the turbidities for the Control Test Liquids was found in the same manner as the control mean OD value. A biofilm formation inhibition rate (Inhibition Rate) was found by the following formula. Biofilm Formation Inhibition Rate (%)={(Mean OD Value)/(Mean Comparison OD Value)}×100

[5] = test system: Pseudomonas aeruginosa (gfp expression PAO1-strain); test: Evaluation test for biofilm removal effect with respect to Pseudomonas aeruginosa (flow cell system); assay type: cell-based; details: test liquid 100 μM; for state of biofilm removal (disappearance of deposited biofilm, fluorescence confocal microscope): observed after 3, 4, 5, 6, 7 and 10 days; for time course of biofilm during removal test: up to 10 days
Method: With the flow cell system of FIG. 1, a removal effect against biofilms formed by Pseudomonas aeruginosa was evaluated for each of the amide compounds produced in Production Examples 1, 3, 5, and 6 (Compounds 1a-1, 1b-1, 1c-1, 1c-2), and for Comparative Compounds 1 to 3 as comparative examples.
The evaluation for biofilm removal effect was performed as follows. After cultivation of bacterias in the glass cell (4) of the flow cell system to grow a biofilm in the inner cell wall, a test liquid containing one of the amide compounds was applied to the biofilm.
As with Experiment Example 1, a gfp expression PAO1-strain was used.
At for the culture medium, the glucose-containing FAB culture medium, trace metal solution, and bacterial suspension as those of Experiment Example 1 were used.
as §1, with “1c-1 and” for “1c-1, or”, “to 3” for “and 2”, “examples denoted by the following formula” for “examples”, “a 0.3 mM glucose-containing FAB culture medium” for “the above-mentioned bacterial suspensions”
as §2
(§3) The flow cell system was filled with hydrous ethanol (70 volume %), and was allowed to stand for at least 12 hours to sterilize the system. Then, air having been filtrated by a membrane filter (8a) was supplied into the flow cell system using the peristaltic pump (2) to dry the system. Thereafter, the system was filled with a 0.3 mM glucose-containing FAB culture medium. 500 μL of the bacterial suspension was injected into the glass cell (4) from the upper surface, and the glass cell was sealed by turning off the three-way turncock (7a,7b). The cell as such was allowed to stand for an hour at room temperature.
After the static culture, two of the three-way turncocks (7a,7b) were turned on, so as to supply each test liquid and control test liquid at a flow rate of 200 μL per minute. With a fluorescence confocal microscope, the process of biofilm formation (deposition) by the Pseudomonas aeruginosa (gfp expression PAO1-strain) adhered to the inner wall of the glass cell was observed three-dimensionally from above to observe changes over time (after 3 days, 4 days, 5 days, 6 days, 7 days, and 10 days). Note that the test liquid and the control test liquid were replaced with fresh liquids every 36 hours.

[6] = test system: Pseudomonas aeruginosa (gfp expression PAO1-strain); test: Evaluation test for biofilm formation inhibition effect against Pseudomonas aeruginosa (flow cell system); assay type: cell-based; details: flow 200 μL per minute, observed after 1, 48, 60, 72, 84 hours
Method: With the flow cell system shown in FIG. 1, an inhibitory effect against biofilm formation by Pseudomonas aeruginosa was evaluated for each of the amide compounds produced in Production Examples 1, 3, 5, 6 and 7 (Compounds 1a-1, 1b-1, 1c-1, 1c-2, 1d-1), and for each of Comparative Compounds (Comparative Example) 1 to 3 denoted by the following formulas.
A culture medium bottle (1), a peristaltic pump (2), a glass cell (4) and a waste fluid bottle (5) are connected via a silicon tube (6) so that a culture medium (9) is supplied to the glass cell (4) from the culture medium bottle (1) using the peristaltic pump (2). The system includes an air removal section (3) between the peristaltic pump (2) and a turncock (7a), for removing the entrained air. All instruments in the flow cell system are sterilized using gamma-rays or an autoclave.
As specifically described later, the inhibitory effect against biofilm formation of each of the amide compounds is examined in the following manner. Bacteria are cultured in a glass cell (4) to grow a biofilm on the inner wall of the cell, and a test liquid containing one of the amide compounds is applied to the biofilm. Then the state of the biofilm is observed to evaluate the inhibitory effect against biofilm formation of the compound using a fluorescence confocal microscope (Leica TCS SP2: product of Leica).
The bacteria was prepared by inserting a pTdk-LVAgfp plasmid into a Pseudomonas aeruginosa PAO1-strain using the electroportion method so that the Pseudomonas aeruginosa PAO1-strain is transformed to express Green Fluorescent Protein (hereinafter referred to as “gfp expression PAO1-strain”) (see Teresa R. et al., Applied and Environmental Microbiology, April 2001, p. 1865-1873).
A 30 mM glucose-containing FAB culture medium was used for preincubation, and a 0.3 mM glucose-containing FAB culture medium was used for main cultivation.
The glucose-containing FAB culture medium was prepared by adding 200 μg/mL of carbenicillin to an aqueous solution containing 30 mM glucose or 0.3 mM glucose, 15 mM ammonium sulfate, 33.7 mM disodium hydrogenphosphate dihydrate, 22.1 mM potassium dihydrogen phosphate, 51.7 mM sodium chloride, 0.47 mM magnesium chloride, 0.08 mM calcium chloride and the following 0.1% trace metal solution.
An aqueous solution containing 1.16 mM calcium sulfate dihydrate, 0.72 mM iron sulfate heptahydrate, 0.08 mM manganous sulfate monohydrate, 0.08 mM copper sulfate pentahydrate, 0.07 mM zinc sulfate heptahydrate, 0.04 mM cobalt sulfate heptahydrate, 0.04 mM […], and 0.08 mM boric acid.
A gfp expression PAO1-strain was inoculated in a 30 mM glucose-containing FAB culture medium, and was subjected to shake culture at 37° C. in an isothermal tank overnight. The obtained overnight culture liquid was diluted by a 30 mM glucose-containing FAB culture medium to OD590=0.1.
The test liquid was prepared by dissolving 100-250 μM of each of the Compounds 1a-1, 1b-1, 1c-1, 1c-2, or 1d-1 according to Production Examples 1, 3 and 5 to 7 and 100-250 μM of Comparative Compounds 1 to 3 as comparative examples in dimethyl sulfoxide (DMSO), and supplying the resulting DMSO solutions to a 0.3 mM glucose-containing FAB culture medium so that the concentration of each compound becomes 0.1%(v/v).
as §2
as §3, with “ethanol of 70” for “ethanol (70”, “volume %,” for “volume %),”, “of a” for “of the”, “for 1” for “for an”, “temperature. […]” for “temperature.”

In the case of `CC(C)(O/N=C(\C(=O)N[C@@H]1C(=O)N2C(C(=O)[O-])=C(C[n+]3ccccc3)CS[C@H]12)c1csc(N)n1)C(=O)O` [CAZ, Ceftazidime], the “MIC (μg/mL) from M100-S16” value [1] is given as 1 to 4 µg/mL, the “MIC (μg/mL) from M100-S16” value [2] is given as 4 to 16 µg/mL and the “MIC (μg/mL) from M100-S16” value [3] is given as 0.06 to 0.5 µg/mL.

For `CCCCCCCCCC(O)CC(=O)NN1CCCC1` (stereo not shown) [Compound 1c-2, N-(pyrrolidin-1-yl)-3-hydroxy dodecanoyl amide], the “inhibition of biofilm formation caused by periodontitis pathogenic bacteria (conclusion in words)” value (“inhibition of biofilm formation caused” below) [4] was “capable of inhibiting biofilm formation”, the “state of biofilm removal (disappearance of deposited biofilm, fluorescence confocal microscope)” value (“state of biofilm removal” below) [5] was “the gradual disappearance of the deposited biofilm with time was observed” and the “time course of biofilm during removal test” value [5] was “the biofilm was first reduced and then increased again after a six-day cultivation, before it reduced again until it disappeared”. The “state of biofilm formation (fluorescence confocal microscope) compared with control test liquid” value (from here on “state … compared with control test liquid”) ([6]; test liquid 100 μM) was “such biofilm formation was not observed”.

For `CC[C@H]1OC(=O)[C@H](C)[C@@H](O[C@H]2C[C@@](C)(OC)[C@@H](O)[C@H](C)O2)[C@H](C)[C@@H](O[C@@H]2O[C@H](C)C[C@H](N(C)C)[C@H]2O)[C@](C)(O)C[C@@H](C)CN(C)[C@H](C)[C@@H](O)[C@]1(C)O` [AZM, Azithromycin], the “MIC (μg/mL) from M100-S16” value [2] is given as 0.5 to 2 µg/mL.

For `CCCCCCCCCCCC(=O)NN1CCCC1` [Compound 1c-1, N-(pyrrolidin-1-yl) dodecanoyl amide], the “inhibition of biofilm formation caused” value [4] was “capable of inhibiting biofilm formation”, the “state of biofilm removal” value [5] was “the gradual disappearance of the deposited biofilm with time was observed” and the “time course of biofilm during removal test” value [5] was “the biofilm was first reduced and then increased again after a six-day cultivation, before it reduced again until it disappeared”. For the same compound, the “state … compared with control test liquid” value ([6]; test liquid 100 μM) was “such biofilm formation was not observed”.

For `CCCCCCCCCC(=O)CC(=O)Nc1ccccc1O` [Comparative Compound 1, reference compound], the “Mean OD Value” ([4]; HA disks, circulated 14 days) was 0.629 and the “state … compared with control test liquid” value ([6]; test liquid 100 μM) was “the huge, thick biofilm was observed as in the control test”.

With `CCCC(=O)NN1CCCC1` [Comparative Compound 2, reference compound] the “Mean OD Value” ([4]; HA disks, circulated 14 days) was 0.719, the inhibition at 100 µM ([4]; Porphyromonas gingivalis, 381STRAIN, 336 h, HA disks, circulated 14 days, relative to control test liquid (DMSO), read-out: Biofilm Formation Inhibition Rate (%)) was -49% and the “state … compared with control test liquid” value ([6]; test liquid 100 μM) was “the huge, thick biofilm was observed as in the control test”.

In the case of `CCCC(=O)NN1CCCCC1` [Comparative Compound 3, reference compound], the “state … compared with control test liquid” value ([6]; test liquid 100 μM) is reported as “the huge, thick biofilm was observed as in the control test”.

With `CCCCCCCCCCCC(=O)NC1CCNC1` (stereo not shown) [Compound 1a-1, N-(pyrrolidin-3-yl) dodecanoyl amide] the “inhibition of biofilm formation caused” value [4] was “capable of inhibiting biofilm formation”, the “state of biofilm removal” value [5] was “the gradual disappearance of the deposited biofilm with time was observed” and the “state … compared with control test liquid” value ([6]; test liquid 250 μM) was “such biofilm formation was not observed”.

With `CCCCCCCCCCCC(=O)NC1CCNCC1` [Compound 1b-1, N-(piperidine-4-yl) dodecanoyl amide] the “inhibition of biofilm formation caused” value [4] was “capable of inhibiting biofilm formation”, the “state of biofilm removal” value [5] was “the gradual disappearance of the deposited biofilm with time was observed” and the “state … compared with control test liquid” value ([6]; test liquid 250 μM) was “such biofilm formation was not observed”.

In the case of `CCCCCCCCCCCC(=O)NN1CCCCC1` [Compound 1d-1, N-(piperidine-1-yl) dodecanoyl amide], the “state … compared with control test liquid” value ([6]; test liquid 100 μM) is reported as “such biofilm formation was not observed”.

For `NC[C@H]1O[C@H](O[C@H]2[C@H](O)[C@@H](O[C@H]3O[C@H](CO)[C@@H](O)[C@H](N)[C@H]3O)[C@H](N)C[C@@H]2N)[C@H](N)C[C@@H]1O` [TOB, Tobramycin], the “MIC (μg/mL) from M100-S16” value [1] is listed as 0.25 to 1 µg/mL, the “MIC (μg/mL) from M100-S16” value [2] is listed as 0.12 to 1 µg/mL and the “MIC (μg/mL) from M100-S16” value [3] is listed as 0.25 to 1 µg/mL.

Reference: patent US9000190B2, “Amide compound or salt thereof, biofilm inhibitor, biofilm remover and disinfectant containing the same” (The University of Tokyo, priority 2006, dated 2015)
